In ChEMBL document CHEMBL2401644, “Synthesis and biological evaluation of new chlorin derivatives as potential photosensitizers for photodynamic therapy” (Bioorg Med Chem, 2013):
Values belong to the compound of their own block, whether it stands above or below them. The source made the active and inactive calls. The calls are words filed in the database; no cut-off is given here.

Experiments:
[1] = Biodistribution in serum of BALB/c mouse allografted with mouse C26 cells at 10 mg/kg, iv after 3 hrs; format: ADME, organism-based; parameters: dose 10 mg/kg, route intravenous; conditions: read-out: Drug uptake
Zone of skin [2] = experiment: Biodistribution in skin of BALB/c mouse allografted with mouse C26 cells at 10 mg/kg, iv after 3 hrs; format: ADME, organism-based; parameters: dose 10 mg/kg, route intravenous; conditions: in vivo
Brain [3] = experiment: Biodistribution in brain of BALB/c mouse allografted with mouse C26 cells at 10 mg/kg, iv after 24 hrs; format: ADME, organism-based; parameters: dose 10 mg/kg, route intravenous; conditions: in vivo
C26 [4] = experiment: Antitumor activity against mouse C26 cells allografted in BALB/c mouse assessed as sparsely distributed cell nuclei of tumor cells at 10 mg/kg, iv administered for 3 hrs followed by light irradiation measured after 3 days by hematoxylin and eosin staining relative to control; format: functional, organism-based; parameters: dose 10 mg/kg
Muscle tissue [5] = experiment: Biodistribution in muscle of BALB/c mouse allografted with mouse C26 cells at 10 mg/kg, iv after 24 hrs; format: ADME, organism-based; parameters: dose 10 mg/kg, route intravenous; conditions: in vivo
Serum [6] = experiment: Biodistribution in serum of BALB/c mouse allografted with mouse C26 cells at 10 mg/kg, iv after 24 hrs; format: ADME, organism-based; parameters: dose 10 mg/kg, route intravenous; conditions: in vivo
Spleen [7] = experiment: Biodistribution in spleen of BALB/c mouse allografted with mouse C26 cells at 10 mg/kg, iv after 3 hrs; format: ADME, organism-based; parameters: dose 10 mg/kg, route intravenous; conditions: in vivo
[8] = Biodistribution in serum of BALB/c mouse allografted with mouse C26 cells at 10 mg/kg, iv after 1 hr; format: ADME, organism-based; parameters: dose 10 mg/kg, route intravenous; conditions: read-out: Drug uptake
Kidney [9] = experiment: Biodistribution in kidney of BALB/c mouse allografted with mouse C26 cells at 10 mg/kg, iv after 24 hrs; format: ADME, organism-based; parameters: dose 10 mg/kg, route intravenous; conditions: in vivo
C26 [10] = experiment: Antitumor activity against mouse C26 cells allografted in BALB/c mouse assessed as reduction in nuclei number of tumor cells at 10 mg/kg, iv administered for 3 hrs followed by light irradiation measured after 3 days by hematoxylin and eosin staining relative to control; format: functional, organism-based; parameters: dose 10 mg/kg
[11] = Biodistribution in serum of BALB/c mouse allografted with mouse C26 cells at 10 mg/kg, iv after 6 hrs; format: ADME, organism-based; parameters: dose 10 mg/kg, route intravenous; conditions: read-out: Drug uptake
Mus musculus [12] = experiment: Toxicity against BALB/c mouse allografted with mouse C26 cells assessed as cellular damage in kidney at 10 mg/kg, iv administered for 3 hrs followed by irradiation measured after 3 days by hematoxylin and eosin staining; format: organism-based; parameters: dose 10 mg/kg, route intravenous; conditions: in vivo, 72 h
Kidney [13] = experiment: Biodistribution in kidney of BALB/c mouse allografted with mouse C26 cells at 10 mg/kg, iv after 3 hrs; format: ADME, organism-based; parameters: dose 10 mg/kg, route intravenous; conditions: in vivo
C26 [14] = experiment: Antitumor activity against mouse C26 cells allografted in BALB/c mouse at 10 mg/kg, iv followed by light irradiation measured after 3 to 7 days; format: functional, organism-based; parameters: dose 10 mg/kg
Zone of skin [15] = experiment: Biodistribution in skin of BALB/c mouse allografted with mouse C26 cells at 10 mg/kg, iv after 24 hrs; format: ADME, organism-based; parameters: dose 10 mg/kg, route intravenous; conditions: in vivo
C26 [16] = experiment: Antitumor activity against mouse C26 cells allografted in BALB/c mouse assessed as poor nuclei staining of tumor cells at 10 mg/kg, iv administered for 3 hrs followed by light irradiation measured after 3 days by hematoxylin and eosin staining relative to control; format: functional, organism-based; parameters: dose 10 mg/kg
Liver [17] = experiment: Biodistribution in liver of BALB/c mouse allografted with mouse C26 cells at 10 mg/kg, iv after 3 hrs; format: ADME, organism-based; parameters: dose 10 mg/kg, route intravenous; conditions: in vivo
[18] = Solubility of the compound in water; format: physicochemical
Spleen [19] = experiment: Biodistribution in spleen of BALB/c mouse allografted with mouse C26 cells at 10 mg/kg, iv after 24 hrs; format: ADME, organism-based; parameters: dose 10 mg/kg, route intravenous; conditions: in vivo
C26 [20] = experiment: Antitumor activity against mouse C26 cells allografted in BALB/c mouse assessed as reduction in nuclei size of tumor cells at 10 mg/kg, iv administered for 3 hrs followed by light irradiation measured after 3 days by hematoxylin and eosin staining relative to control; format: functional, organism-based; parameters: dose 10 mg/kg
Muscle tissue [21] = experiment: Biodistribution in muscle of BALB/c mouse allografted with mouse C26 cells at 10 mg/kg, iv after 3 hrs; format: ADME, organism-based; parameters: dose 10 mg/kg, route intravenous; conditions: in vivo
[22] = Biodistribution in tumor of BALB/c mouse allografted with mouse C26 cells at 10 mg/kg, iv after 3 hrs; format: ADME, organism-based, Neoplasm; parameters: dose 10 mg/kg, route intravenous; conditions: read-out: Drug uptake
Mus musculus [23] = experiment: Biodistribution in tumor of BALB/c mouse allografted with mouse C26 cells at 10 mg/kg, iv after 1 to 24 hrs; format: ADME, organism-based, Neoplasm; parameters: dose 10 mg/kg, route intravenous; conditions: in vivo
Lung [24] = experiment: Biodistribution in lung of BALB/c mouse allografted with mouse C26 cells at 10 mg/kg, iv after 24 hrs; format: ADME, organism-based; parameters: dose 10 mg/kg, route intravenous; conditions: in vivo
Liver [25] = experiment: Biodistribution in liver of BALB/c mouse allografted with mouse C26 cells at 10 mg/kg, iv after 24 hrs; format: ADME, organism-based; parameters: dose 10 mg/kg, route intravenous; conditions: in vivo
Brain [26] = experiment: Biodistribution in brain of BALB/c mouse allografted with mouse C26 cells at 10 mg/kg, iv after 3 hrs; format: ADME, organism-based; parameters: dose 10 mg/kg, route intravenous; conditions: in vivo
Lung [27] = experiment: Biodistribution in lung of BALB/c mouse allografted with mouse C26 cells at 10 mg/kg, iv after 3 hrs; format: ADME, organism-based; parameters: dose 10 mg/kg, route intravenous; conditions: in vivo
Mus musculus [28] = experiment: Toxicity against BALB/c mouse allografted with mouse C26 cells assessed as cellular damage in liver at 10 mg/kg, iv administered for 3 hrs followed by irradiation measured after 3 days by hematoxylin and eosin staining; format: organism-based; parameters: dose 10 mg/kg, route intravenous; conditions: in vivo, 72 h
Serum [29] = experiment: Biodistribution in serum of BALB/c mouse allografted with mouse C26 cells at 10 mg/kg, iv after 1 to 24 hrs; format: ADME, organism-based; parameters: dose 10 mg/kg, route intravenous; conditions: in vivo
Liver [30] = experiment: Biodistribution in liver of BALB/c mouse allografted with mouse C26 cells at 10 mg/kg, iv after 1 to 24 hrs; format: ADME, organism-based; parameters: dose 10 mg/kg, route intravenous; conditions: in vivo

- concentration at 3 h [1]: 8400 ng/g
- Drug uptake (Zone of skin [2]): Active
- Drug uptake (Brain [3]): Not Active
- Drug uptake (Muscle tissue [5]): Not Active
- Drug uptake (Serum [6]): Not Active
- Drug uptake (Spleen [7]): Active
- concentration at 1 h [8]: 17200 ng/g
- Drug uptake (Kidney [9]): Not Active
- concentration at 6 h [11]: 3400 ng/g
- Drug uptake (Kidney [13]): Active
- Drug uptake (Zone of skin [15]): Not Active
- Drug uptake (Liver [17]): Active
- solubility [18]: 100000 µg/mL
- Drug uptake (Spleen [19]): Not Active
- Drug uptake (Muscle tissue [21]): Active
- concentration at 3 h [22]: 690 ng/g
- Drug uptake (Mus musculus [23]): Active
- Drug uptake (Lung [24]): Not Active
- Drug uptake (Liver [25]): Not Active
- Drug uptake (Brain [26]): Active
- Drug uptake (Lung [27]): Active
SMILES: C=Cc1c(C)c2cc3nc(cc4[nH]c(cc5nc(cc1[nH]2)C(C)(O)/C5=C\C=N/OCC)c(C)c4CCC(=O)N(CC(=O)[O-])CC(=O)[O-])C(CCC(=O)N(CC(=O)[O-])CC(=O)[O-])=C3C.[Na+].[Na+].[Na+].[Na+] (stereo unspecified)
- Activity (C26 [4]): Active
- Activity (C26 [10]): Active
- Activity (Mus musculus [12]): Non-toxic
- TGI (C26 [14]): Active
- Activity (C26 [16]): Active
- Activity (C26 [20]): Active
- Activity (Mus musculus [28]): Non-toxic

- solubility [18]: 10000 µg/mL
- Drug uptake (Mus musculus [23]): Not Active
SMILES: C=Cc1c(C)c2cc3nc(cc4[nH]c(cc5nc(cc1[nH]2)C(C)(O)/C5=C\CO)c(C)c4CCC(=O)[O-])C(CCC(=O)[O-])=C3C.[Na+].[Na+] (stereo unspecified)

- concentration at 3 h [1]: 5900 ng/g
- concentration at 1 h [8]: 24200 ng/g
- solubility [18]: 10000 µg/mL
- Drug uptake (Serum [29]): Active
- Drug uptake (Liver [30]): Active
- Drug uptake (Mus musculus [23]): Active
SMILES: C=Cc1c(C)c2cc3nc(cc4[nH]c(cc5nc(cc1[nH]2)C(C)(O)/C5=C\C=N/OCC)c(C)c4CCC(=O)[O-])C(CCC(=O)[O-])=C3C.[Na+].[Na+] (stereo unspecified)
